Measurements as given in patent US12122821B2, “Regulation of glucose metabolism using anti-CGRP antibodies” (H. LUNDBECK A/S, priority 2013, dated 2024).

Columns and labels:
Normal rats = test: Hyperinsulinemic-euglycemic clamp, whole body glucose fluxes in normal rats (Example 1); format: in vivo, rat; details: vs vehicle
Description: To assess the effect on whole body insulin sensitivity, a clamp procedure was performed using 0.3 U/kg/h insulin and ^3H-glucose. Rats were fasted for 6 hours before 180 minutes of perfusion. Steady state was reached after 140 minutes of infusion and the means of glucose infusion rate (GIR), whole body glucose turn over (GTO), hepatic glucose production (HGP), glycolysis, and glycogen synthesis were calculated from 140 min. to 180 min. A bolus of 14-C-2-deoxyglucose was administered 1 hour before the end of the clamp to measure tissue specific glucose utilization.
The hyperinsulinemic-euglycemic clamp was performed using ^3H-glucose as a tracer and 0.3 U/kg/h insulin infusion from 02:00 pm (T0) to 05:00 pm (T+3 h). A glucose solution was infused in parallel and the infusion rate was adjusted to reach the steady state (˜100+/−10 mg/dL). Blood glucose was measured from the tip of the tail using glucometers every 10 minutes. Blood was collected (10 μL) from the tip of the tail during the last hour (steady state) and the following parameters were assessed: Glucose infusion rate; Whole body glucose utilization rate; Hepatic glucose production rate; Whole body glycogen and glycolytic rates.
Whole body Glucose fluxes.

[1] = test system: Zucker diabetic fatty (ZDF) rat; details: ZDF rats
Description: Each pancreas was divided into 2 parts (longitudinal cut). One piece was fixed in 10% formalin solution for histopathological processing. The other piece of pancreas was flash frozen and kept at −80° C. for determination of insulin and proinsulin levels.
Each pancreas sample was fixed in 4% formalin during 24-48 hours maximum; the volume of formalin was 5-10 times higher than the sample volume to assure appropriate fixation. After 48 h, the samples were placed in 70% ethanol.

[2] = test system: Zucker diabetic fatty (ZDF) rat; test: Fructosamine and HbA1c in ZDF rats (Example 3); format: in vivo; details: metformin 200 mg/kg/day, vs vehicle ZDF
Description: For the groups treated with AB14, the antibody was administered once weekly via the caudal vein (i.v., 5 mL/kg) on days 1, 8, 15, and 22 at two different doses 20 mg/kg/week (groups 3 and 7) or 60 mg/kg/week (groups 4 and 8). All other groups were treated once weekly with vehicle 1 (i.v., 5 mL/kg). The intravenous treatments were performed in the morning on day 1, 8, 15, and 22 while under isoflurane anaesthesia. The volume of administration was individually adapted according to the most recent body weight.
All other groups were treated daily with vehicle 2 (p.o., 5 mL/kg) for 28 days. The most recent body weight was used to calculate the average volume of administration in each group.
Fasting blood glucose (glucometers) was measured on days 0, 12, 19, and 26. Fasting plasma insulin, peptide-C (ELISA method), free fatty acids, triglycerides, total cholesterol (colorimetric method), and HDL-cholesterol (phosphotungstate precipitation, colorimetric method) were measured on day 0, and prior to dosing on days 12, 19, and day 26. Non HDL-cholesterol was calculated as total cholesterol—HDL-cholesterol. Fructosamine was measured on days 0, 19 and 28. HbA1c (DCA 2000) was measured on days 0 and 28.

HFD rats = test: Fasting blood glucose, plasma insulin, C-peptide and HOMA-IR in HFD rats (Example 2); format: in vivo, rat; details: vs HFD vehicle
Description: After 6 weeks of HFD rats were randomized to treatment groups according to their glucose intolerance (AUC calculation during an oral glucose tolerance test (OGTT)) and their HOMA-IR (insulin resistance index).
Body weight and food consumption were measured 3 times per week until 10 days of treatment. HOMA-IR was measured on day 10 and 15. A 2-step clamp (5 mU/kg/min and then 15 mU/kg/min insulin) was performed on day 15 or 16. Glucose Turnover (GTO) was assessed using ^3H-glucose tracer infusion during the clamp procedure.
Ab14 (10, 30, 100 mg/kg) and the vehicle were weekly administered via i.v. route (via the caudal vein, under isoflurane anaesthesia), in the morning, on day 1 and day 8 of treatment.
Before the start of the treatment (the day of OGTT) and on day 10 of treatment, all rats were fasted from 08:00 am. At 01:30 pm, blood was collected from the from the tip tail (40 μL on EDTA). Blood glucose (using glucometers) and plasma insulin (ELISA method) were measured.
Plasma insulin and C peptide levels were measured just before the infusion starts (˜T-30 min.), at the end of the steady state of step 1 (T2 h) and step 2 (T3.5 h). For that, blood collection was performed from the tip of the tail (˜100 μL, on EDTA).

[3] = clamp 0.3 U/kg/h insulin, 140-180 min, Ab14 100 mg/kg i.v., metformin 500 mg/kg p.o.
[4] = Ab14 60 mg/kg/wk., Met. 200 mg/kg/day
[5] = day 10, Ab14 10, 30, 100 mg/kg/week, metformin 200 mg/kg/day

## CN(C)C(=N)N=C(N)N [metformin, reference compound]
Normal rats; Ab14 100 mg/kg i.v., metformin 500 mg/kg p.o.
  GIR evolution during clamp: significantly increased
Normal rats; clamp 0.3 U/kg/h insulin, 140-180 min, Ab14 100 mg/kg i.v. 48 h before, metformin 500 mg/kg p.o. 24 h and 4 h before
  increase of glucose infusion rate (GIR): 27%
Normal rats; [3]
  increase of glycolysis rate: 43%
  increase of whole body glucose turn over (GTO): 30%
[1]; AB14 60 mg/kg, metformin, or combined, vs vehicle ZDF
  vacuolization and islet fibrosis severity: trend towards a decrease
[1]; [4]
  Arteries, medial/intimal hypertrophy, severity 0, incidence: 9
  Arteries, medial/intimal hypertrophy, severity 1, incidence: 1
  Brown pigment-laden, severity 1, incidence: 7
  Brown pigment-laden, severity 2, incidence: 3
  Eosinophilic granulocyte infiltration, severity 0, incidence: 10
  Exocrine cell vacuolation, severity 0, incidence: 10
  Fat tissue: Fat tissue necrosis, group mean score: 0
  Interstitial fibroplasia/fibrosis, severity 0, incidence: 9
  Interstitial fibroplasia/fibrosis, severity 1, incidence: 1
  Interstitial hemorrhage, severity 0, incidence: 4
  Interstitial hemorrhage, severity 1, incidence: 6
  Islet Cell Vacuolation, severity 0, incidence: 1
  Islet Cell Vacuolation, severity 1, incidence: 4
  Islet Cell Vacuolation, severity 2, incidence: 5
  Islet Fibrosis, severity 1, incidence: 3
  Islet Fibrosis, severity 2, incidence: 7
  Islet cell anisocytosis/anisokaryosis, severity 0, incidence: 2
  Islet cell anisocytosis/anisokaryosis, severity 1, incidence: 8
  Islet cell mitosis, severity 0, incidence: 5
  Islet cell mitosis, severity 1, incidence: 5
  Islet cell single cell necrosis, severity 0, incidence: 7
  Islet cell single cell necrosis, severity 1, incidence: 3
  Islet granulocytic infiltration, severity 0, incidence: 6
  Islet granulocytic infiltration, severity 1, incidence: 4
  Islet hemorrhage, severity 0, incidence: 8
  Islet hemorrhage, severity 1, incidence: 2
  Large/Giant Islets, severity 0, incidence: 1
  Large/Giant Islets, severity 1, incidence: 1
  Large/Giant Islets, severity 2, incidence: 3
  Large/Giant Islets, severity 3, incidence: 5
  Lymph node: Brown pigment-laden macrophages, group mean score: 0
  Lymph node: Eosinophilic granulocyte infiltration, group mean score: 0.5
  Lymph node: Erythrophagocytosis—sinusoidal, group mean score: 0
  Lymph node: Pink protein rich sinusoidal lymph, group mean score: 0
  Lymph node: Sinusoidal hemorrhage, group mean score: 0
  Lymph node: Sinusoidal mast cells, group mean score: 0
  Mononuclear cell infiltration, severity 1, incidence: 10
  Pancreas: Arteries, medial/intimal hypertrophy, group mean score: 0
  Pancreas: Brown pigment-laden macrophages, group mean score: 1
  Pancreas: Eosinophilic granulocyte infiltration, group mean score: 0
  Pancreas: Exocrine cell vacuolation, group mean score: 0
  Pancreas: Interstitial fibroplasia/fibrosis, group mean score: 0
  Pancreas: Interstitial hemorrhage, group mean score: 1
  Pancreas: Islet cell anisocytosis/anisokaryosis, group mean score: 1
  Pancreas: Islet cell mitosis, group mean score: 0.5
  Pancreas: Islet cell single cell necrosis, group mean score: 0
  Pancreas: Islet cell vacuolation, group mean score: 1.5
  Pancreas: Islet fibrosis, group mean score: 2
  Pancreas: Islet granulocytic infiltration, group mean score: 0
  Pancreas: Islet hemorrhage, group mean score: 0
  Pancreas: Large/giant islet(s), group mean score: 2.5
  Pancreas: Mononuclear cell infiltration, group mean score: 1
  Pancreas: Pancreatic ductule hyperplasia, group mean score: 0.5
  Pancreatic ductule hyperplasia, severity 0, incidence: 5
  Pancreatic ductule hyperplasia, severity 1, incidence: 5
[2]; 28 days, pioglitazone 10 mg/kg/day
  decrease of HbA1c: 15%
[2]; day 19, pioglitazone 10 mg/kg/day
  reduction of fructosamine levels: 6%
HFD rats; [5]
  decrease of HOMA-IR: 36%
  decrease of fasting plasma insulin: 37%
  fasting blood glucose: no effect
HFD rats; day 15, metformin 200 mg/kg/day
  decrease of plasma C-peptide level: 13%
HFD rats; day 15, metformin 200 mg/kg/day, ns
  decrease of fasting plasma insulin: 11%
